pIC50: −log10 of the molar value. Converted amounts (≈) assume the structure as drawn. Read-outs that look alike come from different tables or passages of the source.
Legend:
[1] = system: Escherichia coli MC4100 harboring the IMP4213 (E. coli IMP); assay: microbe, parasite or virus in culture; format: cell-based; settings: Escherichia coli, 22 h
Procedure, shortened: (§1)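 CLSI broth microdilution in cation-adjusted Mueller Hinton Broth with 0.002% Tween-80; inoculum final OD600 0.0005, 22 hours at 35° C. Ten 2-fold dilutions starting at 4 μg/mL (protocol 2) or 0.5 μg/mL (protocol 3).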

[2] = biological target: T1, SpsB (Staphylococcus aureus signal peptidase) (Staphylococcus aureus, UniProt P0A070); assay: cell-based; format: biochemical; settings: SpsB IC50, whole-cell S. aureus (USA300 background, overexpressing SpsB) as SpsB source; fluorogenic peptide substrate, kinetic read 30 min
T1 construct: This assay uses a suspension of Staphylococcus aureus cells as a source of SpsB instead of recombinant SpsB protein; endogenous in cells; host or cells: S. aureus, USA300 background, overexpressing SpsB (whole-cell suspension from frozen pellets)
Procedure, shortened: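 Whole S. aureus cells (USA300, overexpressing SpsB) in PBS with MgCl2, CaCl2 and 0.1% Tween-80 served as enzyme source, mixed with 20 μM stock of (Dabcyl)βAla-KPAKAAE(Edans) substrate before use. Fluorescence (ex 340/em 490 nm) read kinetically over 30 min. IC50 from reaction rate versus 11-point inhibitor concentration.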

[3] = system: Escherichia coli ATCC 25922; assay: Minimum inhibitory concentration, broth micro-dilution (CLSI), E. coli; format: cell-based; settings: Escherichia coli, ATCC25922, 22 h, read-out: MIC (μg/mL) E. coli
[4] = system: Methicillin Resistant Staphylococcus aureus strain USA 300, NRS384; assay: Minimum inhibitory concentration, broth micro-dilution (CLSI), S. aureus; format: cell-based; settings: Staphylococcus aureus, MRSA / NRS 384 / USA300, 22 h, read-out: MIC (μg/mL) S. aureus
Procedure, shortened: as §1

[5] = read-out: MIC (μg/mL) E. coli IMP, E. coli MC4100 IMP4213, increased outer-membrane permeability, 35° C., 22 hours
[6] = E. coli ATCC 25922, 35° C., 22 hours
[7] = MRSA USA 300 NRS384, 35° C., 22 hours

T1 sequence (P0A070 whole entry): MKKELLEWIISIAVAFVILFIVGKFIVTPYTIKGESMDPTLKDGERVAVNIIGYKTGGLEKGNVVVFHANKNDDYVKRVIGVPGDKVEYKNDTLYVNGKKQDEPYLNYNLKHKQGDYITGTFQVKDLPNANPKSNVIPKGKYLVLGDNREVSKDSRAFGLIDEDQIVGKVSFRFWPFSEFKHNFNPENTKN

Cc1nc(-c2ccc(C(C)(C)C)cc2)ncc1C(=O)N[C@@H](CCN)C(=O)N(C)[C@@H]1C(=O)N[C@@H](C)C(=O)N[C@H](C(=O)NCC#N)Cc2ccc(OCCN)c(c2)-c2cc1ccc2OCCN [Compound 163]
MIC [1, 5]: 0.002 µg/mL (≈ 0.00225 µM) | pIC50 [2]: 9.15 | MIC [3, 6]: < 0.063 µg/mL | MIC [4, 7]: 0.031 µg/mL (≈ 0.0348 µM)

CCCCOc1ccc(-c2ncc(C(=O)N[C@@H](CCN)C(=O)N(C)[C@@H]3C(=O)N[C@@H](C)C(=O)N[C@H](C(=O)NCC#N)Cc4ccc(OCCN)c(c4)-c4cc3ccc4OCCN)c(C)n2)cc1 [Compound 164]
MIC [1, 5]: 0.0039 µg/mL (≈ 0.0043 µM) | pIC50 [2]: 9.21 | MIC [3, 6]: 0.13 µg/mL (≈ 0.143 µM) | MIC [4, 7]: 0.047 µg/mL (≈ 0.0519 µM)

CCCc1ccc(-c2nc(C)c(C(=O)N[C@@H](CCN)C(=O)N(C)[C@@H]3C(=O)N[C@@H](C)C(=O)N[C@H](C(=O)NCC#N)Cc4ccc(OCCN)c(c4)-c4cc3ccc4OCCN)c(C)n2)cc1 [Compound 165]
MIC [1, 5]: 0.0039 µg/mL (≈ 0.00438 µM) | pIC50 [2]: 9.21 | MIC [3, 6]: 0.19 µg/mL (≈ 0.213 µM) | MIC [4, 7]: 0.047 µg/mL (≈ 0.0528 µM)

Cc1nc(-c2ccc(CC(C)C)cc2)sc1C(=O)N[C@@H](CCN)C(=O)N(C)[C@@H]1C(=O)N[C@@H](C)C(=O)N[C@H](C(=O)NCC#N)Cc2ccc(OCCN)c(c2)-c2cc1ccc2OCCN [Compound 166]
MIC [1, 5]: 0.016 µg/mL (≈ 0.0179 µM) | pIC50 [2]: 9.11 | MIC [3, 6]: 0.5 µg/mL (≈ 0.559 µM) | MIC [4, 7]: 0.063 µg/mL (≈ 0.0704 µM)

Cc1cc(-c2ccc(CC(C)C)cc2)cnc1C(=O)N[C@@H](CCN)C(=O)N(C)[C@@H]1C(=O)N[C@@H](C)C(=O)N[C@H](C(=O)NCC#N)Cc2ccc(OCCN)c(c2)-c2cc1ccc2OCCN [Compound 168]
MIC [1, 5]: 0.031 µg/mL (≈ 0.0349 µM) | pIC50 [2]: 9.10 | MIC [3, 6]: 0.75 µg/mL (≈ 0.844 µM) | MIC [4, 7]: 0.063 µg/mL (≈ 0.0709 µM)

Cc1nc(-c2ccc([Si](C)(C)C)cc2)ncc1C(=O)N[C@@H](CCN)C(=O)N(C)[C@@H]1C(=O)N[C@@H](C)C(=O)N[C@H](C(=O)NCC#N)Cc2ccc(OCCN)c(c2)-c2cc1ccc2OCCN [Compound 170]
MIC ([1]; read-out: MIC (μg/mL) E. coli IMP): 0.0085 µg/mL (≈ 0.00938 µM) | pIC50 [2]: 9.14 | MIC [3]: 0.13 µg/mL (≈ 0.143 µM) | MIC [4]: 0.073 µg/mL (≈ 0.0806 µM)

Cc1nc(-c2ccc(C(F)(F)F)cc2)ncc1C(=O)N[C@@H](CCN)C(=O)N(C)[C@@H]1C(=O)N[C@@H](C)C(=O)N[C@H](C(=O)NCC#N)Cc2ccc(OCCN)c(c2)-c2cc1ccc2OCCN [Compound 171]
MIC [1, 5]: 0.0078 µg/mL (≈ 0.00865 µM) | pIC50 [2]: 9.14 | MIC [3, 6]: 0.5 µg/mL (≈ 0.554 µM) | MIC [4, 7]: 0.094 µg/mL (≈ 0.104 µM)

CC(C)Cc1ccc(-c2ccc(C(=O)N[C@@H](CCN)C(=O)N(C)[C@@H]3C(=O)N[C@@H](C)C(=O)N[C@H](C(=O)NCC#N)Cc4ccc(OCCN)c(c4)-c4cc3ccc4OCCN)c(C(F)F)c2)cc1 [Compound 172]
MIC [1, 5]: 0.016 µg/mL (≈ 0.0173 µM) | pIC50 [2]: 9.00 | MIC [3, 6]: 0.19 µg/mL (≈ 0.206 µM) | MIC [4, 7]: 0.094 µg/mL (≈ 0.102 µM)

Cc1cc(-c2ncc(CC(C)C)cn2)ccc1C(=O)N[C@@H](CCN)C(=O)N(C)[C@@H]1C(=O)N[C@@H](C)C(=O)N[C@H](C(=O)NCC#N)Cc2ccc(OCCN)c(c2)-c2cc1ccc2OCCN [Compound 174]
MIC [1, 5]: 0.026 µg/mL (≈ 0.0292 µM) | pIC50 [2]: 9.04 | MIC [3, 6]: 0.83 µg/mL (≈ 0.933 µM) | MIC [4, 7]: 0.17 µg/mL (≈ 0.191 µM)

CCCCc1cnc(-c2ccc(C(=O)N[C@@H](CCN)C(=O)N(C)[C@@H]3C(=O)N[C@@H](C)C(=O)N[C@H](C(=O)NCC#N)Cc4ccc(OCCN)c(c4)-c4cc3ccc4OCCN)c(C)c2)nc1 [Compound 175]
MIC [1, 5]: 0.0078 µg/mL (≈ 0.00876 µM) | pIC50 [2]: 9.12 | MIC [3, 6]: 0.5 µg/mL (≈ 0.562 µM) | MIC [4, 7]: 0.13 µg/mL (≈ 0.146 µM)

CCc1cnc(-c2ccc(C(=O)N[C@@H](CCN)C(=O)N(C)[C@@H]3C(=O)N[C@@H](C)C(=O)N[C@H](C(=O)NCC#N)Cc4ccc(OCCN)c(c4)-c4cc3ccc4OCCN)c(C)c2)nc1 [Compound 176]
MIC [1, 5]: 0.13 µg/mL (≈ 0.151 µM) | pIC50 [2]: 8.59 | MIC [3, 6]: 2 µg/mL (≈ 2.32 µM) | MIC [4, 7]: 1 µg/mL (≈ 1.16 µM)

CC(C)CCc1ccc(-c2ccc(C(=O)N[C@@H](CCN)C(=O)N(C)[C@@H]3C(=O)N[C@@H](C)C(=O)N[C@H](C(=O)NCC#N)Cc4ccc(OCCN)c(c4)-c4cc3ccc4OCCN)cc2)cc1 [Compound 177]
MIC [1, 5]: 0.016 µg/mL (≈ 0.018 µM) | pIC50 [2]: 8.96 | MIC [3, 6]: 0.19 µg/mL (≈ 0.214 µM) | MIC [4, 7]: 0.094 µg/mL (≈ 0.106 µM)

Cc1cc(-c2cnc(CC(C)C)cn2)ccc1C(=O)N[C@@H](CCN)C(=O)N(C)[C@@H]1C(=O)N[C@@H](C)C(=O)N[C@H](C(=O)NCC#N)Cc2ccc(OCCN)c(c2)-c2cc1ccc2OCCN [Compound 178]
MIC [1, 5]: 0.039 µg/mL (≈ 0.0438 µM) | pIC50 [2]: 9.05 | MIC [3, 6]: 1.5 µg/mL (≈ 1.69 µM) | MIC [4, 7]: 0.25 µg/mL (≈ 0.281 µM)

Cc1cc(-c2cnc(CC(C)C)nc2)ccc1C(=O)N[C@@H](CCN)C(=O)N(C)[C@@H]1C(=O)N[C@@H](C)C(=O)N[C@H](C(=O)NCC#N)Cc2ccc(OCCN)c(c2)-c2cc1ccc2OCCN [Compound 179]
MIC [1, 5]: 0.0078 µg/mL (≈ 0.00876 µM) | pIC50 [2]: 8.74 | MIC [3, 6]: 0.19 µg/mL (≈ 0.213 µM) | MIC [4, 7]: 0.047 µg/mL (≈ 0.0528 µM)

CC(C)Cc1cnc(-c2ccc(C(=O)N[C@@H](CCN)C(=O)N(C)[C@@H]3C(=O)N[C@@H](C)C(=O)N[C@H](C(=O)NCC#N)Cc4ccc(OCCN)c(c4)-c4cc3ccc4OCCN)c3ccccc23)nc1 [Compound 182]
MIC [1, 5]: 0.13 µg/mL (≈ 0.14 µM) | pIC50 [2]: 8.49 | MIC [3, 6]: 12 µg/mL (≈ 13 µM) | MIC [4, 7]: 0.5 µg/mL (≈ 0.54 µM)

CCC(C)(C)c1ccc(-c2ncc(C(=O)N[C@@H](CCN)C(=O)N(C)[C@@H]3C(=O)N[C@@H](C)C(=O)N[C@H](C(=O)NCC#N)Cc4ccc(OCCN)c(c4)-c4cc3ccc4OCCN)c(C)n2)cc1 [Compound 183]
MIC [1, 5]: 0.0059 µg/mL (≈ 0.00653 µM) | pIC50 [2]: 9.21 | MIC [3, 6]: 0.13 µg/mL (≈ 0.144 µM) | MIC [4, 7]: 0.063 µg/mL (≈ 0.0697 µM)

CCCCCCCCc1ccc(C(=O)N[C@@H](CCN)C(=O)N(C)[C@@H]2C(=O)N[C@@H](C)C(=O)N[C@H](C(=O)NCC#N)Cc3ccc(OCCN)c(c3)-c3cc2ccc3OCCN)c(F)c1 [Compound 184]
MIC [1, 5]: 0.012 µg/mL (≈ 0.0138 µM) | pIC50 [2]: 9.05 | MIC [3, 6]: 0.25 µg/mL (≈ 0.287 µM) | MIC [4, 7]: 0.094 µg/mL (≈ 0.108 µM)

CCCCCCCCc1ccc(C(=O)N[C@@H](CCN)C(=O)N(C)[C@@H]2C(=O)N[C@@H](C)C(=O)N[C@H](C(=O)NCC#N)Cc3ccc(OCCN)c(c3)-c3cc2ccc3OCCN)c(SC)c1 [Compound 185]
MIC [1, 5]: 0.094 µg/mL (≈ 0.104 µM) | pIC50 [2]: 9.04 | MIC [3, 6]: 0.75 µg/mL (≈ 0.833 µM) | MIC [4, 7]: 0.19 µg/mL (≈ 0.211 µM)

CCCCCCCCc1cnc(C(=O)N[C@@H](CCN)C(=O)N(C)[C@@H]2C(=O)N[C@@H](C)C(=O)N[C@H](C(=O)NCC#N)Cc3ccc(OCCN)c(c3)-c3cc2ccc3OCCN)c(C)c1 [Compound 187]
MIC [1, 5]: 0.047 µg/mL (≈ 0.0541 µM) | pIC50 [2]: 9.13 | MIC [3, 6]: 2 µg/mL (≈ 2.3 µM) | MIC [4, 7]: 0.063 µg/mL (≈ 0.0725 µM)

CCCCCCCc1cc(C)c(C(=O)N[C@@H](CCN)C(=O)N(C)[C@@H]2C(=O)N[C@@H](C)C(=O)N[C@H](C(=O)NCC#N)Cc3ccc(OCCN)c(c3)-c3cc2ccc3OCCN)c(F)c1 [Compound 188]
MIC [1, 5]: 0.018 µg/mL (≈ 0.0206 µM) | pIC50 [2]: 9.17 | MIC [3, 6]: 0.22 µg/mL (≈ 0.252 µM) | MIC [4, 7]: 0.047 µg/mL (≈ 0.0539 µM)

CCCCCCCc1cc(F)c(C(=O)N[C@@H](CCN)C(=O)N(C)[C@@H]2C(=O)N[C@@H](C)C(=O)N[C@H](C(=O)NCC#N)Cc3ccc(OCCN)c(c3)-c3cc2ccc3OCCN)c(F)c1 [Compound 190]
MIC [1, 5]: 0.02 µg/mL (≈ 0.0228 µM) | pIC50 [2]: 9.15 | MIC [3, 6]: 0.31 µg/mL (≈ 0.354 µM) | MIC [4, 7]: 0.063 µg/mL (≈ 0.0719 µM)

CCCCCCCc1ccc(C(=O)N[C@@H](CCN)C(=O)N(C)[C@@H]2C(=O)N[C@@H](C)C(=O)N[C@H](C(=O)NCC#N)Cc3ccc(OCCN)c(c3)-c3cc2ccc3OCCN)c(C(F)(F)F)c1 [Compound 191]
MIC [1, 5]: 0.016 µg/mL (≈ 0.0176 µM) | pIC50 [2]: 9.21 | MIC [3, 6]: 0.75 µg/mL (≈ 0.826 µM) | MIC [4, 7]: 0.031 µg/mL (≈ 0.0341 µM)

CCCCCCCCc1ccc(C(=O)N[C@@H](CCN)C(=O)N(C)[C@@H]2C(=O)N[C@@H](C)C(=O)N[C@H](C(=O)NCC#N)Cc3ccc(OCCN)c(c3)-c3cc2ccc3OCCN)c(C(F)(F)F)c1 [Compound 192]
MIC [1, 5]: 0.012 µg/mL (≈ 0.013 µM) | pIC50 [2]: 9.05 | MIC [3, 6]: 0.25 µg/mL (≈ 0.271 µM) | MIC [4, 7]: 0.063 µg/mL (≈ 0.0683 µM)
